Laboratory results as given in patent publication US5858684A, “Method of screening calcium receptor-active molecules” (priority 1995, dated 1999).
“Also recorded” adds a separate entry of the source.

How the values were obtained:
circulating PTH in rats = format: in vivo, rat
[1] = serum albumin and phosphate in rats; format: in vivo, rat; settings: any dose examined
Protocol: (§1) Compounds shown to activate the bovine parathyroid cell calcium receptor in vitro were tested for hypocalcemic activity in vivo. Male Sprague-Dawley rats (200 g) were maintained on a low calcium diet for one week prior to receiving test substance or vehicle as control. Blood was collected from the tail vein three hours after the intraperitoneal administration of NPS 467. […] Serum total calcium, albumin and phosphate were measured by techniques well known in the art.

[2] = serum/blood ionized Ca2+ in rats; format: in vivo, rat; settings: i.p.
Protocol: as §1
Rats (male, Sprague-Dawley, 250-300 g) were fed standard rat chow and fasted overnight prior to the experiment. NPS R-467 was suspended in corn oil and administered as a single oral dose through a gavage needle. Three hours later a sample of blood was taken from the tail vein and assessed for ionized Ca^2+ levels.

[3] = test system: parathyroid cell calcium receptor; format: cell-based
Protocol: For example, bovine parathyroid cells loaded with fura-2 are initially suspended in buffer containing 0.5 mM CaCl2. A test substance is added to the cuvette in a small volume (5-15 μl) and changes in the fluorescence signal are measured. Cumulative increases in the concentration of the test substance are made in the cuvette until some predetermined concentration is achieved or no further changes in fluorescence are noted.
This section describes procedures used to obtain and treat parathyroid cells from calves and humans. […] Human parathyroid glands, were obtained from patients undergoing surgical removal of parathyroid tissue for primary or uremic hyperparathyroidism (uremic HPT), and were treated similarly to bovine tissue.
Glands were trimmed of excess fat and connective tissue and then minced with fine scissors into cubes approximately 2-3 mm on a side. Dissociated parathyroid cells were prepared by collagenase digestion and then purified by centrifugation in Percoll buffer. The resultant parathyroid cell preparation was essentially devoid of red blood cells, adipocytes, and capillary tissue as assessed by phase contrast microscopy and Sudan black B staining. Dissociated and purified parathyroid cells were present as small clusters containing 5 to 20 cells.
The cells were then pelleted, resuspended in the same buffer, but lacking the ester, and incubated a further 15 minutes at 37° C. The cells were subsequently washed twice with PCB containing 0.5 mM CaCl2 and 0.5% BSA and maintained at room temperature (about 20° C.). Immediately before use, the cells were diluted five-fold with prewarmed 0.5 mM CaCl2 -PCB to obtain a final BSA concentration of 0.1%. The concentration of cells in the cuvette used for fluorescence recording was 1-2×10^6 /ml.
The fluorescence of indicator-loaded cells was measured at 37° C. in a spectrofluorimeter (Biomedical Instrumentation Group, University of Pennsylvania, Philadelphia, Pa.) equipped with a thermostated cuvette holder and magnetic stirrer using excitation and emission wavelengths of 340 and 510 nm, respectively. […] Leakage of dye is dependent on temperature and most occurs within the first 2 minutes after warming the cells in the cuvette. Dye leakage increases only very slowly thereafter. To correct the calibration for dye leakage, cells were placed in the cuvette and stirred at 37° C. for 2-3 minutes. The cell suspension was then removed, the cells pelleted, and the supernatant returned to a clean cuvette. […] This estimate was subtracted from the apparent Fmin.
Dissociated bovine parathyroid cells were purified on gradients of Percoll and cultured overnight in serum-free medium.

[4] = test system: inositol phosphate formation in bovine parathyroid cells; assay: inositol phosphate formation in bovine parathyroid cells; format: cell-based
Protocol: After 30 seconds, the reaction was terminated by the addition of CHCl3 :MeOH:HCl and IP1 (circles) and IP3 (triangles) separated by anion exchange chromatography. Each point is the mean of 2 experiments, each performed in triplicate.
This section describes procedures measuring inositol phosphate formation. Membrane phospholipids were labeled by incubating parathyroid cells with 4 μCi/ml ^3 H-myo-inositol for 20-24 hours. Cells were then washed and resuspended in PCB containing 0.5 mM CaCl2 and 0.1% BSA. Incubations were performed in microfuge tubes in the absence or presence of various concentrations of organic polycation for different times. Reactions were terminated by the addition of 1 ml chloroform-methanol-12N HCl (200:100:1; v/v/v). Aqueous phytic acid hydrolysate (200 μl; 25 μg phosphate/tube). The tubes were centrifuged and 600 μl of the aqueous phase was diluted into 10 ml water.
Inositol phosphates were separated by ion-exchange chromatography using AG1-X8 in either the chloride- or formate-form. When only IP3 levels were to be determined, the chloride-form was used, whereas the formate form was used to resolve the major inositol phosphates (IP3, IP2, and IP1). For determination of just IP3, the diluted sample was applied to the chloride-form column and the column was washed with 10 ml 30 mM HCl followed by 6 ml 90 mM HCl and the IP3 was eluted with 3 ml 500 mM HCl. The last eluate was diluted and counted. For determination of all major inositol phosphates, the diluted sample was applied to the formate-form column and IP1, IP2, and IP3 eluted sequentially by increasing concentrations of formate buffer. The eluted samples from the formate columns were rotary evaporated, the residues brought up in cocktail, and counted.

[5] = test system: PTH secretion from bovine parathyroid cells; assay: PTH secretion from bovine parathyroid cells; format: cell-based
Protocol: PTH secretion was measured by first suspending cells in PCB containing 0.5 mM CaCl2 and 0.1% BSA.

[6] = cited from earlier work
[7] = biological target: T1, bovine parathyroid cell calcium receptor (BoPCaR 1) (Bos taurus, UniProt P35384); assay: inositol 1,4,5-triphosphate in Xenopus oocytes expressing BoPCaR 1; format: cell-based; settings: 10 μg/ml, 48 hours
T1 construct: Xenopus oocytes were injected with BoPCaR 1, the 5.3 Kb cDNA encoding a bovine parathyroid cell calcium receptor; expressed in transfected cells; host or cells: Xenopus laevis oocytes injected with cRNA/cDNA of BoPCaR 1
T1 sequence (P35384 20-1085): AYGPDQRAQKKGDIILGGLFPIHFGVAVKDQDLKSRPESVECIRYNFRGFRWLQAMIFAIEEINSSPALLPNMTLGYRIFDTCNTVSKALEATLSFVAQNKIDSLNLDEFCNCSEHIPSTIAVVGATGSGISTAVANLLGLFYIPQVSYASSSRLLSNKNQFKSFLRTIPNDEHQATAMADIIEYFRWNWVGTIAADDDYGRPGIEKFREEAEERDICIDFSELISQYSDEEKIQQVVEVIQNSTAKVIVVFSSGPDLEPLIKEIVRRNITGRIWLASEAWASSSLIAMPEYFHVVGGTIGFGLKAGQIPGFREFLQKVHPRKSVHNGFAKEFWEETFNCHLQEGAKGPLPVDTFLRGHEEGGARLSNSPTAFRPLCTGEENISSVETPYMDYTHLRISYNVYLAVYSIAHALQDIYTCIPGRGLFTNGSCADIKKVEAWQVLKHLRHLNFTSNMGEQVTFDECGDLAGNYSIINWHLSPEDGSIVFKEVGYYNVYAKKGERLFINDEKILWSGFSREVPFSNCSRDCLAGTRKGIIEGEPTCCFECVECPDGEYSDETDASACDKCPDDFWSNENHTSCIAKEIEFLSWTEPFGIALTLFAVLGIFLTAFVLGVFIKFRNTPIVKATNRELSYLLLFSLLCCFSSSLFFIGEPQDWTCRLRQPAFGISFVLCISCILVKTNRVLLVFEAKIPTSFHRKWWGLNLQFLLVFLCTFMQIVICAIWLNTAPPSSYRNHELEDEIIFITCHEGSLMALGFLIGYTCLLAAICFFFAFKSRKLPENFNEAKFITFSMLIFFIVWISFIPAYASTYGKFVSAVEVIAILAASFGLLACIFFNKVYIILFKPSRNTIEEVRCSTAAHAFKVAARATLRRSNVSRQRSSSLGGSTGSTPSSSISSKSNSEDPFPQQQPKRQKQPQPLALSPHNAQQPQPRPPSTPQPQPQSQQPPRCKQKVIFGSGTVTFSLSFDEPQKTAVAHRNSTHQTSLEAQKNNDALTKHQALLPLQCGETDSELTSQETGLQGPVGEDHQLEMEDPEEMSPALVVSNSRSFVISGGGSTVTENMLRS
Source text: These responses are mediated by the following series of biochemical events:
(1) Activation of phospholipase C by a pertussis toxin-sensitive guanine nucleotide regulatory (G) protein resulting in 4-7 fold increases in the levels of inositol 1,4,5-triphosphate (IP3).

net positive charge = format: physicochemical
[8] = test system: cyclic AMP formation in bovine parathyroid cells; format: cell-based
Protocol: Cells were incubated as above for PTH secretion studies and at the end of the incubation, a 0.15-ml sample was taken and transferred to 0.85 ml of hot (70° C.) water and heated at this temperature for 5-10 minutes. The tubes were subsequently frozen and thawed several times and the cellular debris sedimented by centrifugation. Portions of the supernatant were acetylated and cyclic AMP concentrations determined by radioimmunoassay.
Each value is the mean±SEM of three experiments.

Compound: COc1cccc(C(C)NCCCc2ccccc2)c1 (racemic) [NPS 467]
- circulating levels of PTH (circulating PTH in rats): dose-dependent reduction in circulating levels of PTH
- serum albumin or phosphate levels [1]: no change in serum albumin or phosphate levels
- serum or blood Ca2+ ([2]; low calcium diet, 3 hours after dosing, rats): dose-dependent reduction in serum or whole blood
- time of maximal hypocalcemic effect ([2]; returned toward control levels after 24 hours): maximal within three hours

Compound: CCCCCCCCCCCCCC(=O)O[C@@H]1[C@@H](C)[C@@]2(O)[C@@H](C=C(CO)C[C@]3(O)C(=O)C(C)=C[C@@H]23)[C@@H]2C(C)(C)[C@]12OC(C)=O [PMA, phorbol myristate acetate]
- shift of concentration-response curve for [Ca2+]i ([3]; 100 nM PMA): shifts to the right
- IP1 formation evoked by extracellular Ca2+ or spermine ([4]; 100 nM PMA, 5 minutes): depresses the formation of IP1
- shift of concentration-response curve for PTH secretion ([5]; 100 nM PMA): shifts to the right

Compound: NCCCC[C@H](N)C(=O)O [lysine]
- interaction with phospholipid vesicles [6]: not interacting to a significant extent

Compound: pertussis toxin
- inhibition of the increase in IP3 by pertussis toxin [7]: 75%

Compound: protamine
- increase in [Ca2+]i / mobilization of intracellular Ca2+ [3]: evoked rapid and transient increases
- formation of inositol phosphates [4]: increases the formation of inositol phosphates
- onset of increase in IP3 formation [4]: ≤ 30 s
- inhibition of PTH secretion ([5]; bovine parathyroid cells): inhibit PTH secretion; also recorded: inhibited PTH secretion to the same extent
- net positive charge (net positive charge): +21
- isoproterenol-induced cyclic AMP [8]: depressed isoproterenol-induced increases
